Patent EP1985629A1, “Pro-apoptotic molecules and therapeutic uses thereof” (UNIVERSITA DEGLI STUDI DI GENOVA, priority 2007, dated 2008)
Where a SMILES comes first, the peptide text is derived from it. [ ]: non-standard residue; d: D form. Aib = CC(C)(N)C(=O)O

What was measured:
[1] = molecular target: T1, Bcl-XL (Homo sapiens, UniProt Q07817, S2L); test: Fluorescence anisotropy binding and competition binding assay; settings: competition binding assay: BakF-BH3 2E-8 M, competitor peptide 2E-7 M, Bcl-XL 2E-8 M to 1E-6 M; 45 min, 30°C; read-out: Weighted mean Kd
T1 construct: with the C-terminus truncated; His6; made in house; host or cells: Escherichia coli BL21 (pLys)
T1 sequence (Q07817 1-212 S2L): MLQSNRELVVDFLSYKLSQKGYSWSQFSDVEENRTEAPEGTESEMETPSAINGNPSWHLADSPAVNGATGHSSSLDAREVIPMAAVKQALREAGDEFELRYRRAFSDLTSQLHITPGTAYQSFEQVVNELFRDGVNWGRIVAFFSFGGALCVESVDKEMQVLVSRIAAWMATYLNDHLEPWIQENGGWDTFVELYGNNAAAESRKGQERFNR
Description: Fluorescence Anisotropy was monitored with a Polarion Instrument (Tecan, Austria): excitation wavelength = 485 nm, emission wavelength = 535 nm. […] Anisotropy values were studied at a fixed concentration of fluoresceinated Bak BH3 molecule (2E-8 M), a fixed concentration of peptide inhibitors (2E-7 M) and increasing concentrations of Bel-XL (from 2E-8 M to 1E-6 M). Experiments were performed in 96-wells black non-binding plates (Corning), the experimental volume was always 200 µl / well. Reagents were mixed at room temperature and maintained at a constant temperature (30°C) during the measurements. Anisotropy measurements were performed at different times of incubation to assess the stability of the reactions. […]
For simple binding experiments we evaluated the Kd using a nonlinear regression analysis [NLIN SAS] to fit the Lundblad equation [38]. […]
We calculated the expected Anisotropy value solving a third degree equation obtained extending the simple binding equation to a competitive binding inhibition assay. […]
Point estimates of each equilibrium constant were evaluated using meta-analytical tools weighting each experimental result for its estimated variance. […]
Fluorescence Anisotropy (FA) is a quantitative technique to analyze the interaction of a smaller fluorescent molecule with a larger non fluorescent molecule. […]

[2] = Peptides stability in medium with 10% FBS or in 100% FBS (HPLC-MS); assay type: in vitro ADME; settings: 37°C
Description: Compounds were added to the medium solution of serum 10% or 100% FBS at the final concentration of 32 µM. Several extraction mixtures were attempted: MeOH; MeOH with 0,1% trifluoroacetic acid (TFA); (H2O: MeOH) 1:1, 1:4, 4;1. A perchloric acid (PCA) protein precipitation protocol was also tried. […] In both cases ice-cold methanol was added to the peptide solution. The mixture was centrifuged and the resulting supernatant was then added with ice-cold methanol (alone or containing 0,1% TFA) at a 1:1 final ratio and this procedure was repeated twice. Before extraction peptides were incubated in 10% FBS or 100% FBS at 37°C and, at different incubation times (0', 6, 24 and 48 hours), a sample of 50 µl was collected to be analyzed by HPLC-MS.

[3] = test system: peripheral blood lymphocytes (PBL); test: Viability of normal peripheral blood lymphocytes; assay type: cell-based, human; settings: for ratio of viable cells, treated versus untreated: two pulses at a 48 h interval, four days, mean ± SE
Description: The leukemic myelomonocytic cell line U937, the T cell leukaemia cell line Jurkat, the Burkitt lymphoma cell line Namalwa were grown in RPMI 1640 medium supplemented with 10% FBS, 1% sodium pyruvate, 1% non essential aminoacids, 1% penicillin/streptomycin. 2.5·10^4 cells were seeded on 48 wells plates (Corning Costar). The treatment was performed on triplicate wells. Drug concentration ranged from 1 µM up to 30 µM, four treatments every 24 h or two treatments every 48 h were performed. Human peripheral blood lymphocytes obtained from healthy volunteers by venipuncture, were isolated by lymphocyte separation medium (Ficoll) density gradient centrifugation. Mononuclear cells from the interphase were washed twice with PBS and resuspended in RPMI 1640 medium containing 10% FCS, glutamine and antibiotics. Phytohemagglutinin (PHA) was added at 1.5 µg/ml final concentration.
PI uptake tests were performed to assess cell viability. Cells suspended in culture medium were incubated for 5 min with 3 µg/ml PI and analysed by flow cytometry. […] At least 10,000 events were acquired on a logarithmic scale from each sample.
Bone marrow aspirates from patients with different leukaemia types were plated in tissue culture medium supplemented with 20% FCS, treated with 072RB twice every 48 h, and followed for 4 days. They were evaluated by flow cytometry DNA/SSC analysis, In Table 3 we show the percentage of [early + late apoptotic cells], according to leukaemia type and Int or 072RB dosage. To further study sensitivity to 072RB of normal cells, peripheral blood lymphocytes (PBL) isolated from four independent healthy donors were subjected to a four-days treatment with 10 µM 072RB. Treatment was performed, as usual, with two pulses at a 48 h interval. Lymphocytes were either un-stimulated or activated by PHA. […] Comparing treated and untreated normal peripheral lymphocytes, the ratio of viable cells between the two groups was 0.87 ± 0.05 (mean ± SE) for quiescent lymphocytes and 0.82 ± 0.057 for proliferating lymphocytes. This effect of 072RB on normal lymphocytes seems especially small if we consider the effects observed in leukaemia cell lines (see supplementary information), and also the effects observed in AML cells from ex vivo experiments: 0.55 ± 0.145 (mean ± SE). Table 3: Effect of 072RB on haematological malignancies (AML: acute myeloid leukaemia; ALL: acute lymphoid leukaemia; NBM: normal bone marrow): percentage of early/late apoptotic cells. Mean values from duplicate experiments are reported. The difference between the two individual values never exceeded 15% of the mean value. Ex vivo isolated cells were treated with either Int or 072RB at day 0, 2 (5, 10 µM), at day 0, 1, 2, 3 (1, 3 µM) and analysed after PI staining at day 4.

Compound `CC[C@H](C)[C@H](NC(=O)[C@H](CCCNC(=N)N)NC(=O)[C@H](CCCNC(=N)N)NC(=O)[C@H](CC(C)C)NC(=O)[C@H](CCC(=O)O)NC(=O)[C@H](CCC(N)=O)NC(=O)C(C)(C)NC(=O)[C@@H](NC(=O)[C@H](Cc1ccc(O)cc1)NC(=O)[C@@H](NC(=O)[C@H](CCC(=O)O)NC(=O)[C@@H]1CCCN1C(=O)[C@H](CCCNC(=N)N)NC(=O)[C@H](CCSC)NC(=O)[C@@H](N)CC(=O)O)[C@@H](C)CC)[C@@H](C)CC)C(=O)NCC(=O)N[C@@H](CC(=O)O)C(=O)N[C@@H](C)C(=O)N[C@@H](Cc1ccccc1)C(=O)N[C@@H](CC(N)=O)C(=O)NC(C)(C)C(=O)N[C@@H](Cc1ccc(O)cc1)C(=O)N[C@@H](CCCCN)C(=O)N[C@@H](CCCCN)C(=O)N[C@@H](Cc1c[nH]c2ccccc12)C(=O)N[C@@H](CCCCN)C(=O)N[C@@H](CCSC)C(=O)N[C@@H](CCCNC(=N)N)C(=O)N[C@@H](CCCNC(=N)N)C(=O)N[C@@H](CC(N)=O)C(=O)N1CCC[C@H]1C(=O)N[C@@H](Cc1ccccc1)C(=O)N[C@@H](Cc1c[nH]c2ccccc12)C(=O)N[C@H](C(=O)N[C@@H](CCCCN)C(=O)N[C@H](C(=O)N[C@@H](CCC(N)=O)C(=O)N[C@@H](CCCNC(=N)N)C(N)=O)[C@@H](C)CC)[C@@H](C)CC` [Peptide 072RB] (H-DMRPEIYI[Aib]QELRRIGDAFN[Aib]YKKWKMRRNPFWIKIQR-NH2; N-terminus and C-terminus assumed) has a Kd [1] of 4.3 nM, a half-life at 32 µM ([2]; RPMI 1640 medium with 10% fetal bovine serum (FBS), medium (RPMI 1640) with 10% FBS, calculated by linear regression) of 36.5 h and a half-life at 32 µM ([2]; bovine, 100% fetal bovine serum (FBS), 100% FBS) of 17.8 h. For the same compound, the “effect on cell viability and cell proliferation” value ([3]; normal peripheral lymphocytes, data not reported) was “cytostatic rather than cytotoxic”, the “ratio of viable cells, treated versus untreated” value ([3]; proliferating (PHA activated) lymphocytes, 10 µM) was 0.82 ± 0.057 and the toxicity ([3]; quiescent lymphocytes, 10 µM) was “quite negligible”. For the same compound, the “ratio of viable cells, treated versus untreated” value ([3]; quiescent lymphocytes, 10 µM) was 0.87 ± 0.05.
